Measured values: patent US10738056B2 (Aduro BioTech, Inc., priority 2017, dated 2020)

Molecular target: Human cGAS amino acids 155-522 (Homo sapiens (Human), UniProt Q8N884)
Experiment: cGAS biochemical activity assay (ATP remaining, Kinase-Glo Max luminescence)
Conditions: human cGAS 155-522, ATP remaining (Kinase-Glo Max); read-out: cGAS IC50

Chain of Human cGAS amino acids 155-522 (Q8N884 157-522): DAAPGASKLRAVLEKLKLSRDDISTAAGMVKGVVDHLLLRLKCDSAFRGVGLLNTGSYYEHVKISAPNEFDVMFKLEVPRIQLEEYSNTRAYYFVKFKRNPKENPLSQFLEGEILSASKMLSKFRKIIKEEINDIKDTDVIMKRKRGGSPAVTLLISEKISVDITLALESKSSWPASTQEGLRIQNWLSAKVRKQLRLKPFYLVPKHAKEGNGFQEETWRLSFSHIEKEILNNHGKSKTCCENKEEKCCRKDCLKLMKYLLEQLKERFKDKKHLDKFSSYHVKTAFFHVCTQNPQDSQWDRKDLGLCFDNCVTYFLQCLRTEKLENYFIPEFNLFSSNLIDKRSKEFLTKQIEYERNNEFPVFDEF

IC50 [µM]	Structure (SMILES)
> 250	Cc1[nH]c2c(-c3ccccc3)c(C(F)(F)F)nn2c(=O)c1-c1nnc(C2CCCCC2N)o1 (stereo not shown) [Compound D1080, 6-(5-(2-aminocyclohexyl)-1,3,4-oxadiazol-2-yl)-5-methyl-3-phenyl-2-(trifluoromethyl)pyrazolo[1,5-a]pyrimidin-7(4H)-one]
20 to 250	COC(=O)Nc1ccccc1NC(=O)c1c(C)[nH]c2c(-c3ccccc3)c(C(F)(F)F)nn2c1=O [Compound A1038, methyl (2-(5-methyl-7-oxo-3-phenyl-2-(trifluoromethyl)-4,7-dihydropyrazolo[1,5-a]pyrimidine-6-carboxamido)phenyl)carbamate]
20 to 250	Cc1ccc(NC(=O)c2c(C)[nH]c3c(-c4ccccc4)c(C(F)(F)F)nn3c2=O)cc1 [Compound A1012, 5-methyl-7-oxo-3-phenyl-N-(p-tolyl)-2-(trifluoromethyl)-4,7-dihydropyrazolo[1,5-a]pyrimidine-6-carboxamide]
20 to 250	COc1cccc2c1nc(-c1c(C)[nH]c3c(-c4ccccc4)c(C(F)(F)F)nn3c1=O)n2CC(=O)O [Compound C1221, 2-(4-methoxy-2-(5-methyl-7-oxo-3-phenyl-2-(trifluoromethyl)-4,7-dihydropyrazolo[1,5-a]pyrimidin-6-yl)-1H-benzo[d]imidazol-1-yl)acetic acid]
< 20	COc1cc(F)cc(NC(=O)c2c(C)[nH]c3c(-c4ccccc4)c(C(F)(F)F)nn3c2=O)c1 [Compound A1133, N-(3-fluoro-5-methoxyphenyl)-5-methyl-7-oxo-3-phenyl-2-(trifluoromethyl)-4,7-dihydropyrazolo[1,5-a]pyrimidine-6-carboxamide]
20 to 250	Cc1[nH]c2c(-c3ccccc3)c(C(F)(F)F)nn2c(=O)c1-c1cnc2ccccc2c1 [Compound C1007, 5-methyl-3-phenyl-6-(quinolin-3-yl)-2-(trifluoromethyl)pyrazolo[1,5-a]pyrimidin-7(4H)-one]
20 to 250	COc1nc(NC(C)=O)nc2oc(-c3c(C)[nH]c4c(-c5ccccc5)c(C(F)(F)F)nn4c3=O)nc12 [Compound C1150, N-(7-methoxy-2-(5-methyl-7-oxo-3-phenyl-2-(trifluoromethyl)-4,7-dihydropyrazolo[1,5-a]pyrimidin-6-yl)oxazolo[5,4-d]pyrimidin-5-yl)acetamide]
20 to 250	COCc1[nH]c2c(-c3ccccc3)c(C(=O)O)nn2c(=O)c1-c1nc2c(OC)cccc2o1 [Compound C1090, 6-(4-methoxybenzo[d]oxazol-2-yl)-5-(methoxymethyl)-7-oxo-3-phenyl-4,7-dihydropyrazolo[1,5-a]pyrimidine-2-carboxylic acid]
20 to 250	Cc1[nH]c2c(-c3ccccc3)c(C(F)(F)F)nn2c(=O)c1-c1nnc(-c2ccc([N+](=O)[O-])cc2)o1 [Compound D1061, 5-methyl-6-(5-(4-nitrophenyl)-1,3,4-oxadiazol-2-yl)-3-phenyl-2-(trifluoromethyl)pyrazolo[1,5-a]pyrimidin-7(4H)-one]
20 to 250	Cc1[nH]c2c(-c3ccccc3)c(C(F)(F)F)nn2c(=O)c1-c1nnc(C2CCNCC2)o1 [Compound D1052, 5-methyl-3-phenyl-6-(5-(piperidin-4-yl)-1,3,4-oxadiazol-2-yl)-2-(trifluoromethyl)pyrazolo[1,5-a]pyrimidin-7(4H)-one]
20 to 250	Cc1nc(-c2c(C)[nH]c3c(-c4ccccc4)c(C(F)(F)F)nn3c2=O)[nH]c1C [Compound C1021, 6-(4,5-dimethyl-1H-imidazol-2-yl)-5-methyl-3-phenyl-2-(trifluoromethyl)pyrazolo[1,5-a]pyrimidin-7(4H)-one]
< 20	COc1cccc2oc(-c3c(P(C)(C)=O)[nH]c4c(-c5ccccc5)c(C(F)(F)F)nn4c3=O)nc12 [Compound C1284, 5-(dimethylphosphoryl)-6-(4-methoxybenzo[d]oxazol-2-yl)-3-phenyl-2-(trifluoromethyl)pyrazolo[1,5-a]pyrimidin-7(4)-one]
< 20	Cc1[nH]c2c(-c3ccccc3)c(C(F)(F)F)nn2c(=O)c1-c1nnc(N2CCCCC2CCNS(C)(=O)=O)o1 (stereo not shown) [Compound D1073, N-(2-(1-(5-(5-methyl-7-oxo-3-phenyl-2-(trifluoromethyl)-4,7-dihydropyrazolo[1,5-a]pyrimidin-6-yl)-1,3,4-oxadiazol-2-yl)piperidin-2-yl)ethyl)methanesulfonamide]
20 to 250	Cc1[nH]c2c(-c3ccccc3)c(C(F)(F)F)nn2c(=O)c1C(=O)Nc1ccc(S(C)(=O)=O)cn1 [Compound A1108, 5-methyl-N-(5-(methylsulfonyl)pyridin-2-yl)-7-oxo-3-phenyl-2-(trifluoromethyl)-4,7-dihydropyrazolo[1,5-a]pyrimidine-6-carboxamide]
20 to 250	COc1ccncc1NC(=O)c1c(C)[nH]c2c(-c3ccccc3)c(C(F)(F)F)nn2c1=O [Compound A1103, N-(4-methoxypyridin-3-yl)-5-methyl-7-oxo-3-phenyl-2-(trifluoromethyl)-4,7-dihydropyrazolo[1,5-a]pyrimidine-6-carboxamide]
20 to 250	COc1cccc2oc(-c3c(C4CCC(C(=O)O)CC4)[nH]c4c(-c5ccccc5)c(C(F)(F)F)nn4c3=O)nc12 (single isomer, unassigned) [Compound C1237, 4-(6-(4-methoxybenzo[d]oxazol-2-yl)-7-oxo-3-phenyl-2-(trifluoromethyl)-4,7-dihydropyrazolo[1,5-a]pyrimidin-5-yl)cyclohexane-1-carboxylic acid]

IC50 [µM]	Structure (SMILES)
> 250	COc1cccc2oc(-c3c(C)[nH]c4c(-c5ccccc5)c(N)nn4c3=O)nc12 [Compound C1063, 2-amino-6-(4-methoxybenzo[d]oxazol-2-yl)-5-methyl-3-phenylpyrazolo[1,5-a]pyrimidin-7(4H)-one]
20 to 250	Cc1[nH]c2c(-c3ccccc3)c(C(F)(F)F)nn2c(=O)c1-c1nnc(N2CCCC(CN)C2)o1 (stereo not shown) [Compound D1083, 6-(5-(3-(aminomethyl)piperidin-1-yl)-1,3,4-oxadiazol-2-yl)-5-methyl-3-phenyl-2-(trifluoromethyl)pyrazolo[1,5-a]pyrimidin-7(4H)-one]
20 to 250	COCc1[nH]c2c(-c3ccccc3)c(C(F)(F)F)nn2c(=O)c1C(=O)Nc1ccccc1OC [Compound A1042, 5-(methoxymethyl)-N-(2-methoxyphenyl)-7-oxo-3-phenyl-2-(trifluoromethyl)-4,7-dihydropyrazolo[1,5-a]pyrimidine-6-carboxamide]
20 to 250	COc1cccc2oc(-c3c(C)[nH]c4c(-c5ccccc5C#N)c(C(F)(F)F)nn4c3=O)nc12 [Compound C1148, 2-(6-(4-methoxybenzo[d]oxazol-2-yl)-5-methyl-7-oxo-2-(trifluoromethyl)-4,7-dihydropyrazolo[1,5-a]pyrimidin-3-yl)benzonitrile]
20 to 250	Cc1nnc(Cc2c(C)[nH]c3c(-c4ccccc4)c(C(F)(F)F)nn3c2=O)o1 [Compound D1032, 5-methyl-6-((5-methyl-1,3,4-oxadiazol-2-yl)methyl)-3-phenyl-2-(trifluoromethyl)pyrazolo[1,5-a]pyrimidin-7(4H)-one]
20 to 250	COc1nccnc1NC(=O)c1c(C)[nH]c2c(-c3ccccc3)c(C(F)(F)F)nn2c1=O [Compound A1097, N-(3-methoxypyrazin-2-yl)-5-methyl-7-oxo-3-phenyl-2-(trifluoromethyl)-4,7-dihydropyrazolo[1,5-a]pyrimidine-6-carboxamide]
< 20	CO[C@@H]1CCCCC1c1nnc(-c2c(C)[nH]c3c(-c4ccccc4)c(C(F)(F)F)nn3c2=O)o1 (stereo partly shown) [D1046 Iso-2]
< 20	COCCNC(=O)c1[nH]c2c(-c3ccccc3)c(C(F)(F)F)nn2c(=O)c1-c1nc2c(OC)cccc2o1 [Compound C1142, 6-(4-methoxybenzo[d]oxazol-2-yl)-N-(2-methoxyethyl)-7-oxo-3-phenyl-2-(trifluoromethyl)-4,7-dihydropyrazolo[1,5-a]pyrimidine-5-carboxamide]
20 to 250	COc1ccc(NC(=O)Cc2c(C)[nH]c3c(-c4ccccc4)c(C(F)(F)F)nn3c2=O)cc1 [Compound B1006, N-(4-methoxyphenyl)-2-(5-methyl-7-oxo-3-phenyl-2-(trifluoromethyl)-4,7-dihydropyrazolo[1,5-a]pyrimidin-6-yl)acetamide]
> 250	Cc1[nH]c2c(-c3ccccc3)c(C(F)(F)F)nn2c(=O)c1-c1nnc(-c2ccc(N)cc2)o1 [Compound D1081, 6-(5-(4-aminophenyl)-1,3,4-oxadiazol-2-yl)-5-methyl-3-phenyl-2-(trifluoromethyl)pyrazolo[1,5-a]pyrimidin-7(4H)-one]
20 to 250	Cc1[nH]c2c(-c3ccccc3)c(C(F)(F)F)nn2c(=O)c1-c1nnc(CC2CCN(C)CC2)o1 [Compound D1065, 5-methyl-6-(5-((1-methylpiperidin-4-yl)methyl)-1,3,4-oxadiazol-2-yl)-3-phenyl-2-(trifluoromethyl)pyrazolo[1,5-a]pyrimidin-7(4H)-one]
> 250	COc1cccc2oc(-c3c(C)[nH]c4c(-c5ccccc5)c(C(=O)O)nn4c3=O)nc12 [Compound C1043, 6-(4-methoxybenzo[d]oxazol-2-yl)-5-methyl-7-oxo-3-phenyl-4,7-dihydropyrazolo[1,5-a]pyrimidine-2-carboxylic acid]
20 to 250	CC(=O)N1CCC(NC(=O)c2c(C)[nH]c3c(-c4ccccc4)c(C(F)(F)F)nn3c2=O)CC1 [Compound A1027, N-(1-acetylpiperidin-4-yl)-5-methyl-7-oxo-3-phenyl-2-(trifluoromethyl)-4,7-dihydropyrazolo[1,5-a]pyrimidine-6-carboxamide]
20 to 250	COc1cccc2oc(-c3c(C(=O)NCCN(C)C)[nH]c4c(-c5ccccc5)c(C(F)(F)F)nn4c3=O)nc12 [Compound C1212, N-(2-(dimethylamino)ethyl)-6-(4-methoxybenzo[d]oxazol-2-yl)-7-oxo-3-phenyl-2-(trifluoromethyl)-4,7-dihydropyrazolo[1,5-a]pyrimidine-5-carboxamide]
> 250	Cc1[nH]c2c(-c3ccccc3)c(C(F)(F)F)nn2c(=O)c1C(=O)N1CCCC1 [Compound A1009, 5-methyl-3-phenyl-6-(pyrrolidine-1-carbonyl)-2-(trifluoromethyl)pyrazolo[1,5-a]pyrimidin-7(4H)-one]
